# Test results: PubChem BioAssay (NCI)
#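 GI50 marks 50% less growth. TGI: concentration producing complete growth inhibition.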
# How the values were obtained:
# Experiment in all cases: DTP human tumour cell line panel, 384-well format
# HT29 colon = test system: HT29 colon
# TK-10 renal = test system: TK-10 renal
# OVCAR-8 ovarian = test system: OVCAR-8 ovarian
# UACC-257 melanoma = test system: UACC-257 melanoma
# HOP-62 NSCLC = test system: HOP-62 NSCLC
# SF-539 CNS = test system: SF-539 CNS
# LOX IMVI melanoma = test system: LOX IMVI melanoma
# OVCAR-4 ovarian = test system: OVCAR-4 ovarian
# K-562 leukemia = test system: K-562 leukemia
# IGROV1 ovarian = test system: IGROV1 ovarian
# A549 NSCLC = test system: A549 NSCLC
# SK-MEL-2 melanoma = test system: SK-MEL-2 melanoma
# MCF7 breast = test system: MCF7 breast
# MDA-MB-435 melanoma = test system: MDA-MB-435 melanoma
# BT-549 breast = test system: BT-549 breast
# SN12C renal = test system: SN12C renal
# OVCAR-3 ovarian = test system: OVCAR-3 ovarian
# SR leukemia = test system: SR leukemia
# EKVX NSCLC = test system: EKVX NSCLC
# HCT-116 colon = test system: HCT-116 colon
# SF-268 CNS = test system: SF-268 CNS
# CCRF-CEM leukemia = test system: CCRF-CEM leukemia
# HCC-2998 colon = test system: HCC-2998 colon
# U251 glioblastoma = test system: U251 glioblastoma
# M14 melanoma = test system: M14 melanoma
# 786-0 renal = test system: 786-0 renal
# HCT-15 colon = test system: HCT-15 colon
# HS 578T breast = test system: HS 578T breast
# UACC-62 melanoma = test system: UACC-62 melanoma
# NCI-H322M lung = test system: NCI-H322M lung
# NCI/ADR-RES ovarian = test system: NCI/ADR-RES ovarian
# SNB-19 CNS = test system: SNB-19 CNS
# RXF 393 renal = test system: RXF 393 renal
# MDA-MB-231 breast = test system: MDA-MB-231 breast
# HL-60(TB) leukemia = test system: HL-60(TB) leukemia
# MDA-MB-468 breast = test system: MDA-MB-468 breast
# MALME-3M melanoma = test system: MALME-3M melanoma
# NCI-H23 lung = test system: NCI-H23 lung
# SK-MEL-5 melanoma = test system: SK-MEL-5 melanoma
# KM12 colon = test system: KM12 colon
# MOLT-4 leukemia = test system: MOLT-4 leukemia
# COLO 205 colon = test system: COLO 205 colon
# SK-MEL-28 melanoma = test system: SK-MEL-28 melanoma
# SK-OV-3 ovarian = test system: SK-OV-3 ovarian
# SNB-75 CNS = test system: SNB-75 CNS
# A498 renal = test system: A498 renal
# PC-3 prostate = test system: PC-3 prostate
# RPMI-8226 leukemia = test system: RPMI-8226 leukemia
# NCI-H460 NSCLC = test system: NCI-H460 NSCLC
structure (smiles),measurement,setting,value
CN(c1ncccc1CNc1nc(Nc2ccc3c(c2)CC(=O)N3)ncc1C(F)(F)F)S(C)(=O)=O,GI50,HT29 colon,3740 nM
same,TGI,HT29 colon,> 100000 nM
same,GI50,TK-10 renal,2790 nM
same,TGI,TK-10 renal,> 100000 nM
same,GI50,OVCAR-8 ovarian,3310 nM
same,TGI,OVCAR-8 ovarian,> 100000 nM
same,GI50,UACC-257 melanoma,2010 nM
same,TGI,UACC-257 melanoma,4340 nM
same,GI50,HOP-62 NSCLC,1970 nM
same,TGI,HOP-62 NSCLC,7830 nM
same,GI50,SF-539 CNS,1860 nM
same,TGI,SF-539 CNS,3700 nM
same,GI50,LOX IMVI melanoma,1540 nM
same,TGI,LOX IMVI melanoma,3580 nM
same,GI50,OVCAR-4 ovarian,2480 nM
same,TGI,OVCAR-4 ovarian,8640 nM
same,GI50,K-562 leukemia,2830 nM
same,TGI,K-562 leukemia,> 100000 nM
same,GI50,IGROV1 ovarian,2420 nM
same,TGI,IGROV1 ovarian,> 100000 nM
same,GI50,A549 NSCLC,3150 nM
same,TGI,A549 NSCLC,> 100000 nM
same,GI50,SK-MEL-2 melanoma,1850 nM
same,TGI,SK-MEL-2 melanoma,3580 nM
same,GI50,MCF7 breast,1020 nM
same,TGI,MCF7 breast,8250 nM
same,GI50,MDA-MB-435 melanoma,2290 nM
same,TGI,MDA-MB-435 melanoma,7700 nM
same,GI50,BT-549 breast,1740 nM
same,TGI,BT-549 breast,3880 nM
same,GI50,SN12C renal,2400 nM
same,TGI,SN12C renal,5720 nM
same,GI50,OVCAR-3 ovarian,2000 nM
same,TGI,OVCAR-3 ovarian,4740 nM
same,GI50,SR leukemia,501 nM
same,TGI,SR leukemia,1670 nM
same,GI50,EKVX NSCLC,1490 nM
same,TGI,EKVX NSCLC,4170 nM
same,GI50,HCT-116 colon,1890 nM
same,TGI,HCT-116 colon,> 100000 nM
same,GI50,SF-268 CNS,1820 nM
same,TGI,SF-268 CNS,3990 nM
same,GI50,CCRF-CEM leukemia,1710 nM
same,TGI,CCRF-CEM leukemia,3330 nM
same,GI50,HCC-2998 colon,1190 nM
same,TGI,HCC-2998 colon,3210 nM
same,GI50,U251 glioblastoma,2880 nM
same,TGI,U251 glioblastoma,> 100000 nM
same,GI50,M14 melanoma,1750 nM
same,TGI,M14 melanoma,4240 nM
same,GI50,786-0 renal,2440 nM
same,TGI,786-0 renal,7780 nM
same,GI50,HCT-15 colon,3810 nM
same,TGI,HCT-15 colon,17000 nM
same,GI50,HS 578T breast,1620 nM
same,TGI,HS 578T breast,3700 nM
same,GI50,UACC-62 melanoma,1390 nM
same,TGI,UACC-62 melanoma,2860 nM
same,GI50,NCI-H322M lung,2010 nM
same,TGI,NCI-H322M lung,4450 nM
same,GI50,NCI/ADR-RES ovarian,26000 nM
same,TGI,NCI/ADR-RES ovarian,95600 nM
same,GI50,SNB-19 CNS,3390 nM
same,TGI,SNB-19 CNS,> 100000 nM
same,GI50,RXF 393 renal,1200 nM
same,TGI,RXF 393 renal,2690 nM
same,GI50,MDA-MB-231 breast,2550 nM
same,TGI,MDA-MB-231 breast,> 100000 nM
same,GI50,HL-60(TB) leukemia,1700 nM
same,TGI,HL-60(TB) leukemia,3090 nM
same,GI50,MDA-MB-468 breast,1850 nM
same,TGI,MDA-MB-468 breast,3380 nM
same,GI50,MALME-3M melanoma,2200 nM
same,TGI,MALME-3M melanoma,4940 nM
same,GI50,NCI-H23 lung,1790 nM
same,TGI,NCI-H23 lung,3340 nM
same,GI50,SK-MEL-5 melanoma,1630 nM
same,TGI,SK-MEL-5 melanoma,3110 nM
same,GI50,KM12 colon,218 nM
same,TGI,KM12 colon,1720 nM
same,GI50,MOLT-4 leukemia,431 nM
same,TGI,MOLT-4 leukemia,1300 nM
same,GI50,COLO 205 colon,1460 nM
same,TGI,COLO 205 colon,4280 nM
same,GI50,SK-MEL-28 melanoma,1850 nM
same,TGI,SK-MEL-28 melanoma,4200 nM
same,GI50,SK-OV-3 ovarian,3100 nM
same,TGI,SK-OV-3 ovarian,> 100000 nM
same,GI50,SNB-75 CNS,1550 nM
same,TGI,SNB-75 CNS,3600 nM
same,GI50,A498 renal,2910 nM
same,TGI,A498 renal,> 100000 nM
same,GI50,PC-3 prostate,2510 nM
same,TGI,PC-3 prostate,> 100000 nM
same,GI50,RPMI-8226 leukemia,1660 nM
same,TGI,RPMI-8226 leukemia,3030 nM
same,GI50,NCI-H460 NSCLC,1610 nM
same,TGI,NCI-H460 NSCLC,3290 nM
